Laboratory results as given in the supplement of paper PMC10307832.

How the values were obtained:
Assay in all cases: relative viability (nuclei count vs DMSO), 5 days (fraction); higher = more cells survive
XMD8-85 + Phenformin = compound: CN1CCN(CC1)C2=CC(=C(C=C2)NC3=NC=C4C(=N3)N(C5=CC=CC=C5C(=O)N4C)C)OC [XMD8-85] + N=C(N)NC(=N)NCCc1ccccc1 [Phenformin] (partner 250 µM)
Method in brief: (§1)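 Lung cancer cell lines, seeded in 1536-well plates, were treated the following day by pin tool with a single drug or with five library-drug doses (not always all listed) in √10 steps on top of a fixed anchor-drug dose. Cells were fixed and nuclei stained in one step after 5 days, and nuclei were counted. Relative viability is the nuclei count for treated wells divided by that for vehicle wells, reported as medians of duplicate plates.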

4EGI-1 + Trametinib = compound: O=C(O)C(Cc1ccccc1[N+](=O)[O-])=NNc1nc(-c2ccc(Cl)c(Cl)c2)cs1 (mixture of isomers) [4EGI-1] + CC(=O)Nc1cccc(-n2c(=O)n(C3CC3)c(=O)c3c(Nc4ccc(I)cc4F)n(C)c(=O)c(C)c32)c1 [Trametinib] (partner 0.02 µM)
Method in brief: as §1

4EGI-1 + Pictilisib = compound: O=C(O)C(Cc1ccccc1[N+](=O)[O-])=NNc1nc(-c2ccc(Cl)c(Cl)c2)cs1 (mixture of isomers) [4EGI-1] + CS(=O)(=O)N1CCN(Cc2cc3nc(-c4cccc5[nH]ncc45)nc(N4CCOCC4)c3s2)CC1 [Pictilisib] (partner 1 µM)
Method in brief: as §1

4EGI-1 + Vorinostat = compound: O=C(O)C(Cc1ccccc1[N+](=O)[O-])=NNc1nc(-c2ccc(Cl)c(Cl)c2)cs1 (mixture of isomers) [4EGI-1] + O=C(CCCCCCC(=O)Nc1ccccc1)NO [Vorinostat] (partner 1 µM)
Method in brief: as §1

Cell Line	relative viability (XMD8-85 + Phenformin; first compound 0.08 µM)	relative viability (XMD8-85 + Phenformin; first compound 2.53 µM)	relative viability (XMD8-85 + Phenformin; first compound 8 µM)	relative viability (4EGI-1 + Trametinib; first compound 0.5 µM)	relative viability (4EGI-1 + Trametinib; first compound 1.581 µM)	relative viability (4EGI-1 + Trametinib; first compound 5 µM)	relative viability (4EGI-1 + Trametinib; first compound 50 µM)	relative viability (4EGI-1 + Pictilisib; first compound 0.5 µM)	relative viability (4EGI-1 + Pictilisib; first compound 1.581 µM)	relative viability (4EGI-1 + Pictilisib; first compound 5 µM)	relative viability (4EGI-1 + Pictilisib; first compound 15.81 µM)	relative viability (4EGI-1 + Pictilisib; first compound 50 µM)	relative viability (4EGI-1 + Vorinostat; first compound 0.5 µM)	relative viability (4EGI-1 + Vorinostat; first compound 1.581 µM)	relative viability (4EGI-1 + Vorinostat; first compound 5 µM)	relative viability (4EGI-1 + Vorinostat; first compound 50 µM)	relative viability (XMD8-85 + Phenformin; first compound 0.253 µM)	relative viability (XMD8-85 + Phenformin; first compound 0.8 µM)	relative viability (4EGI-1 + Trametinib; first compound 15.81 µM)	relative viability (4EGI-1 + Vorinostat; first compound 15.81 µM)
HCC-827	0.389	0.49	0.45	0.575	0.458	0.611	0.505	1.03	0.993	0.958	0.298	0.66	0.785	0.698	0.902	0.274	–	–	–	–
HOP-62	0.595	0.683	0.469	0.415	0.356	0.329	0.234	0.576	–	0.709	0.546	0.256	0.65	0.346	0.715	0.104	0.535	0.659	0.28	0.616
NCI-H1355	0.417	0.437	0.408	0.47	0.428	0.372	0.33	0.372	0.396	0.493	0.362	0.277	0.698	0.586	0.662	0.514	0.409	0.422	0.319	0.595
A549	0.0975	0.274	0.193	–	–	–	–	0.456	0.454	0.603	0.433	0.0907	–	–	–	–	0.198	0.149	–	–
A-427	0.278	0.335	0.208	0.891	–	0.774	0.384	0.855	0.409	0.705	0.589	0.364	0.865	–	0.882	0.2	0.268	0.346	0.742	0.646
NCI-H358	0.301	0.385	0.167	0.154	0.132	0.151	0.123	0.333	0.368	0.346	0.259	0.223	0.609	0.613	0.663	0.0967	0.314	0.312	0.114	0.319
NCI-H23	0.797	0.694	0.774	0.351	–	0.422	0.187	0.481	–	0.561	0.579	0.343	0.779	–	0.612	0.165	0.791	0.806	0.369	0.58
LXF-289	0.524	0.553	–	0.716	0.669	0.61	0.583	0.846	0.731	0.793	0.745	0.516	0.79	0.718	0.787	0.672	0.542	0.525	0.622	0.802
NCI-H1975	0.402	0.464	0.312	0.341	0.32	0.325	0.212	0.309	0.324	0.316	0.322	0.294	0.79	0.679	0.754	0.357	0.409	0.446	0.289	0.7
